# Measured values published in patent US11708422B2, “Mitigation of lung injury” (The Trustees Of The University Of Pennsylvania, priority 2016, dated 2023).
# Entries after “also recorded” stand apart in the source; their conditions may differ.
# How the values were obtained:
# [1] = system: RAEC monolayers; test: Stretch-associated permeability of RAEC monolayers (cyclic stretch); type: cell-based, rat; details: 10 min of stretch; for stretch-associated permeability: pretreated, vs vehicle controls
# Procedure: As evidence that NRG1, HER2, and HER3 regulate stretch-associated increases in permeability, RAEC monolayers (N≥3-7/group) were exposed to 10 min of stretch, and compared vehicle controls (VC, black bars, FIG. 16—Appendix I) with those pretreated microRNA miR15-b to reduce NRG1 expression (FIG. 7, APPROACH—Appendix I), TAPI2 to inhibit ADAM17 and NRG1 cleavage (diagonal striped bars, FIG. 16—Appendix I), HER3 mAb to inhibit NRG1 binding (dark gray bars), or AG825 (white bars) to inhibit HER2 activation.
# each outcome measure, at each timepoint), at 0, 25, 37% ASA. To assess the effects of a longer stretch duration, RAEC monolayers from additional isolations (n=7 rats) were also subjected to cyclic stretch ASA of 0% (control) or 25% for 6 hrs. […] In RAECs, results were compared to stretched and unstretched monolayers with separate treatments to evaluate downstream signaling pathway inhibition of ERK (U0126), PI3K (Wortmannin), Rac1 (EHT-1864 and ERK 1/2 siRNA [97] and LIMK1 (BMS4). Additional groups had NRG1 expression decreased by overexpressing miRNA-15b (negative regulator of NRG1), using scrambled oligonucleotide as a negative control. As a validation of or hierarchical platform, TJ expression, phosphorylation and arrangement results in PCLS were compared with RAECs. In all groups, monolayers were assigned to one of four quantitative outcome evaluations: alveolar paracellular permeability via BODIPY-oubain and streptavidin-FITC methods (see INNOVATION—Appendix I), TJ and actin arrangement by fixing RAECs and PCLSs for qualitative immunofluorescence, total and phosphorylated TJ content via Western blot, or ZO-1-bound TJ proteins by isolating protein for co-IP using ZO-1 as bait, followed by Western blotting for occludin, claudins 4, 7, and 18, and F-actin in the ZO-1 protein fraction.
# [2] = system: RAEC monolayers; test: TJ protein dissociation from ZO-1 (co-IP with ZO-1 as bait) in stretched RAEC monolayers; type: cell-based, rat; details: RAECs, 10 min of cyclic stretch
# Source text: In the extracellular domain, the TJ is composed of claudins and occludin bound to TJ proteins of neighboring cells. In the intracellular domain, the claudins and occludin bind to actin via ZO-1. […] The present study tests the hypothesis that TJ dissociation between the ZO1 and the claudins and occludin is the primary causal mechanism for HER2-HER3 mediated barrier disruption. As preliminary evidence, RAEC monolayers (N=4) that were pretreated with NRG1 cleavage inhibitor TAPI-2, HER2 inhibitor AG825, or vehicle (VC) were stretched. […] The present study also confirmed stretch-induced TJ protein dissociation in lung slices.
# each outcome measure, at each timepoint), at 0, 25, 37% ASA. To assess the effects of a longer stretch duration, RAEC monolayers from additional isolations (n=7 rats) were also subjected to cyclic stretch ASA of 0% (control) or 25% for 6 hrs. For every isolation, functional relationships will be confirmed in unstretched and stretched control groups treated with AG825 (HER2 inhibitor), anti-HER3ab (HER3 inhibitor), and tempol or tiron (superoxide scavenger), and compared with unstretched RAEC and PCLS treated with PMA to activate HER3 via NRG1 shedding as a positive control. In RAECs, results were compared to stretched and unstretched monolayers with separate treatments to evaluate downstream signaling pathway inhibition of ERK (U0126), PI3K (Wortmannin), Rac1 (EHT-1864 and ERK 1/2 siRNA [97] and LIMK1 (BMS4). Additional groups had NRG1 expression decreased by overexpressing miRNA-15b (negative regulator of NRG1), using scrambled oligonucleotide as a negative control. As a validation of or hierarchical platform, TJ expression, phosphorylation and arrangement results in PCLS were compared with RAECs. In all groups, monolayers were assigned to one of four quantitative outcome evaluations: alveolar paracellular permeability via BODIPY-oubain and streptavidin-FITC methods (see INNOVATION—Appendix I), TJ and actin arrangement by fixing RAECs and PCLSs for qualitative immunofluorescence, total and phosphorylated TJ content via Western blot, or ZO-1-bound TJ proteins by isolating protein for co-IP using ZO-1 as bait, followed by Western blotting for occludin, claudins 4, 7, and 18, and F-actin in the ZO-1 protein fraction.
# [3] = system: mice treated with bleomycin to induce lung injury; details: relative to untreated mice; cited from earlier work
# [4] = system: rodent model of VILI; test: In vivo rodent model of VILI (large tidal volume mechanical ventilation); design: species or system rat; details: rats, Vt=25 ml/kg for 4 hrs, PEEP=0, AG825 1.67 mg/kg/day IP, 3 days
# Procedure: Ventilated rats received one of […] treatments, intratracheal TAPI2 (used in vivo to inhibit NRG1 sheddase ADAM17) or […] AG825 or intravenous trastuzumab (to inhibit HER2), or will serve as ventilated vehicle-treated controls. Treatment windows were varied from 3 days prior ventilation to concurrent application, to identify an optimal, clinically-relevant therapeutic dose and timing. Dynamic compliance will be measured every 30 min. All animals were injected with FITC-albumin prior to ventilation, and alveolar permeability assessed prior to sacrifice by quantifying fluorescence of bronchoalveolar lavage (BAL) fluid normalized to serum fluorescence. Lungs were formalin-fixed after BAL, and hematoxylin/eosin stained sections were evaluated for hyaline membrane formation, interstitial edema, margination and infiltration of neutrophils, as well as intra-alveolar and perivascular hemorrhage. Compliance, permeability, and lung histology were compared across groups.
SMILES,stretch-associated permeability [1],TJ dissociation with stretch [2],levels of TJ bound to ZO-1 after stretch vs unstretched controls [2],alveolar protein content [3],protection against VILI [4],lung compliance ([4]; 1.67 mg/kg/day),permeability (barrier properties) in vivo ([4]; 1.67 mg/kg/day),barrier properties vs. unstretched VC [1]
CC(C)C[C@H](CC(=O)NO)C(=O)N[C@H](C(=O)N[C@@H](C)C(=O)NCCN)C(C)(C)C [TAPI2],significantly reduced stretch-associated permeability,reduces stretch-induced tight junction dissociation; also recorded: prevented,equal or greater after stretch than unstretched controls,decreased alveolar protein content,–,–,–,–
COc1cc(/C=C(\C#N)C(N)=O)cc(CSc2nc3ccccc3s2)c1O [AG825],significantly reduced stretch-associated permeability,reduces stretch-induced tight junction dissociation; also recorded: prevented,equal or greater after stretch than unstretched controls,–,dramatically protects against VILI,preserves lung compliance; also recorded: significant improvements in lung compliance,preserves barrier properties/moderates unwanted permeability; also recorded: significant improvements in lung compliance and permeability,maintained barrier properties at unstretched levels
